Patent US7109317B1, “FK506-based regulation of biological events” (President and Fellows of Harvard College, priority 1998, dated 2006)

Assays:
[1] = test system: calcineurin; experiment: NFAT-SEAP reporter gene assay (calcineurin inhibition assay), PMA/ionomycin-stimulated; format: cell-based, human; settings: dose-dependent suppression of PMA/ionomycin-induced activation of NFAT-SEAP reporter, transient transfection
Protocol: (§1) In particular, we transfected human TAg Jurkat T cells with a reporter construct, NFAT-SEAP, which consists of 12 copies of the NFAT response element fused upstream of the gene for secreted alkaline phosphatase (SEAP). Following transfection, the cells were exposed to phorbol myristate acetate (PMA) and ionomycin (IO), which together are able to activate NFAT-SEAP reporter activity. […] Specifically, ten million Jurkat cells per condition were transfected with 500 ng of NFAT-SEAP reporter construct by electroporation (40 ms pulse) and aliquoted at 0.3×10^6/well into a 96-well microtiter plate. […] Cells were incubated 36 hours in a tissue culture incubator, then heat-inactivated for 2 hours at 65° C. Following heating, 100 μL of cell supernatants were transferred to a replica plate containing 100 μL of assay buffer (120 μM 4-methylumbelliferyl phosphate in 2M diethanolamine bicarbonate, pH 10). Assays were incubated 8 hours before reading on a Fluoroskan plate reader.

[2] = test system: endogenous calcineurin (NFAT-SEAP reporter, human TAg Jurkat T cells); experiment: NFAT-SEAP reporter assay (calcineurin inhibition assay), PMA + ionomycin stimulated human TAg Jurkat T cells; format: cell-based; settings: for inhibition of NFAT-SEAP activity: PMA/ionomycin-induced reporter activity
Source text: A similar strategy can be used to identify bump-hole pairs for the CAB domain.
Each of the residues in question is part of the CAB minimal binding domain structure. […] These mutations may be inserted randomly or in a directed fashion, as described above for FKBP.
as §1

[3] = test system: mink lung cells (FKBP); experiment: rapamycin-dependent effect in mink lung cells, suppression by FK506 derivatives; format: cell-based
Source text: To rule out these other possibilities, we tested two of the derivatives for their ability to suppress a rapamycin-dependent effect in mink lung cells (Paul A Clemons and Brent Stockwell, unpublished observations).

[4] = test system: mink lung cells; experiment: Suppression of a rapamycin-dependent effect in mink lung cells; format: cell-based; settings: unpublished observations
Source text: Other possibilities for the reduced activity of derivatives in this assay are 1) compound insolubility in tissue culture media, 2) inability of compound to penetrate the cell membrane, or 3) inability of compound to bind to FKBP. To rule out these other possibilities, we tested two of the derivatives for their ability to suppress a rapamycin-dependent effect in mink lung cells (Paul A Clemons and Brent Stockwell, unpublished observations).

[5] = test system: fCAB, CnA (12–394) fused to CnB (3–170), human calcineurin A (SEQ ID NO: 33) and calcineurin B (SEQ ID NO: 35); experiment: NFAT-SEAP reporter assay with overexpressed full length CAB (fCAB); format: cell-based; settings: 500–5000 ng fCAB construct DNA, 500 ng NFAT-SEAP
Protocol: Primers containing restriction sites were prepared in order to amplify two different fragments of calcineurin A, corresponding the full-length CAB (fCAB) and the minimal CAB (mCAB). These PCR fragments were subcloned directionally into the polylinker to generate the following constructs: ATG-XhoI-CnA (12–394)-SalI-SpeI-TAA-EcoRI ATG-XhoI-CnA (340–394)-SalI-SpeI-TAA-EcoRI Primers containing restriction sites were prepared in order to amplify the fragment of calcineurin B corresponding to residues 3–170 of this protein. […] This fusion results in another (SalI/XhoI) fusion which cannot be cut by either enzyme. A similar strategy is possible to generate multimers of the CAB domain, greatly facilitating the production of these reagents. Since all of the restriction enzymes within the coding region are 6-base cutters, they preserve the reading frame for protein synthesis. The mature CAB should have the following amino acid sequence: NH2-Met-Leu-Glu-(CnA frag)-Val-Glu-(CnB frag)-Val-Asp-Thr-Ser-COOH • (SEQ ID NO 22) New mCAB-p65 constructs were verified by sequence analysis.
In particular, we transfected human TAg Jurkat T cells with a reporter construct, NFAT-SEAP, which consists of 12 copies of the NFAT response element fused upstream of the gene for secreted alkaline phosphatase (SEAP). […] Assays were incubated 8 hours before reading on a Fluoroskan plate reader. […]

[6] = test system: 350miniCABs (CNA residues 350–394 fused to CNBMG or CNBM, VP16), with FKBP3-GE; experiment: SEAP assay, 350miniCAB-VE with FKBP3-GE; format: cell-based, human; settings: FK506, with FKBP3-GE
Source text: Four such minimal CAB proteins were created by PCR and ligation. Two of the miniCABs contained CNA residues 340–394 fused to either CNBMG or CNBM(340miniCABs). The other two miniCABs contained CNA residues 350–394 fused to either CNBMG or CNBM(350miniCABs). Each of these miniCABs was also fused to the VP16 transactivation domain.
Consistent with the relative activity of CNBMG and CNBM, 340miniCABMG-VE was able to induce higher SEAP activity than 340miniCABM-VE.

[7] = test system: 340miniCAB-VE constructs (CNA residues 340–394 fused to CNBMG or CNBM, VP16), with FKBP3-GE; experiment: SEAP assay, 340miniCAB-VE with FKBP3-GE; format: cell-based, human
Protocol: (§2) 10 million T-antigen transformed Jurkat T-cells growing in log phase at 37 degrees with 5% CO2 in RPMI medium supplemented with 10% FBS, Penicillin and Streptomycin, and Glutamate are centrifuged for 5 minutes at 1000×g. This pellet is washed with RPMI without phenol-red and re-pelleted by centrifugation at 1000×g for 5 minutes. 200 microliters of phenol-free RPMI are used to resuspend each 10 million cells. 200 microliters of these cells are then incubated for 10 minutes at room temperature with 1 microgram of the UAS-SEAP reporter, 1 microgram of the DNA binding domain containing construct, and 5 micrograms of the activation domain containing construct. Electroporation is performed at […], 129 Ohms on a BTX electroporator. The cells are allowed to recover at room temperature for another 10 minutes. They are then resuspended in 10 mLs of RPMI w/o phenol red supplemented with 10% FBS, penicillin, streptomycin, and Glutamate and returned to the 37 degree incubator with 5% CO2 for 24 hrs.
After recovery, the cells are pelleted by centrifugation at 1000×g for 5 minutes and resuspended in 5 mLs of RPMI w/o phenol red supplemented with 10% FBS, penicillin, streptomycin, and Glutamate. 100 microliters of this cell suspension is plated on a 96 well plate. Appropriate dilutions of the dimerizer from an ethanolic solution (2 micromolar to 0.2 nanomolar) are made in the same media that the cells were resuspended in such that the concentration of ethanol is less than 1%.

[8] = test system: (340miniCABMG)2-VE, two 340miniCAB domains in series fused to VP16, with FKBP3-GE; experiment: SEAP assay, two 340miniCAB domains in series (VE) with FKBP3-GE; format: cell-based, human; settings: FK506, with FKBP3-GE
Protocol: as §2
(§3) After recovery, the cells are pelleted by centrifugation at 1000×g for 5 minutes and resuspended in 5 mLs of RPMI w/o phenol red supplemented with 10% FBS, penicillin, streptomycin, and Glutamate. 100 microliters of this cell suspension is plated on a 96 well plate. […]

[9] = test system: full length CABs (residues 12–394 of human calcineurin A, SEQ ID NO: 33, fused to residue 2 or residue 3 of calcineurin B, SEQ ID NO: 35) fused to VP16 or …; experiment: SEAP transcription activation assay, full length CABs fused to VP16 or GAL4; format: cell-based; settings: FK506 titration, Jurkat T-cells
Source text: The summary of our data in this transcription assay is as follows. The full length CABS (residues 12–394 of calcineurin A fused to residue 2 or to residue 3 of Calcinuerin B) are functional when fused to VP16 or to GAL4. They have an EC50 of ˜1 nanoMolar.

[10] = test system: full length CABMG-GE (CNA residues 12–394 fused to CNBMG, GAL4), with FKBP3-VE; experiment: SEAP assay, full length CABMG-GE with FKBP3-VE
Protocol: as §2, §3

[11] = test system: 2 tandem minicabs (340–394 of CNA and 3–170 of CNB) fused to VP16, with Gal4 fused to 3 FKBPs; experiment: SEAP transcription activation assay, 2 tandem minicabs fused to VP16; settings: FK506, SEAP
Protocol: as §2, §3

[12] = test system: (340miniCABMG)3-VE, three 340miniCABs in series fused to VP16, with FKBP3-GE; experiment: SEAP assay, three 340miniCAB domains in series (VE) with FKBP3-GE; format: cell-based, human; settings: FK506, with FKBP3-GE
Protocol: as §2, §3

SMILES: CO[C@H]1C[C@@H](C)C/C(C)=C/[C@@H](CC=Cc2ccccc2)C(=O)C[C@H](O)[C@@H](C)[C@@H](/C(C)=C/[C@@H]2CC[C@@H](O)[C@H](OC)C2)OC(=O)[C@@H]2CCCCN2C(=O)C(=O)[C@]2(O)O[C@H]1[C@@H](OC)C[C@H]2C [C40-phenyl-FK506]
- fold less immunosuppressive than FK506 [1]: at least 30 fold
- inhibition of NFAT-SEAP activity [2]: inability of C40-phenyl-FK506 to inhibit NFAT-SEAP activity
- immunosuppressive activity relative to FK506 (dose-dependent suppression of PMA/ionomycin-induced NFAT-SEAP activation) ([2]; fold less immunosuppressive than FK506, transient transfection): at least 30 fold
- suppression of rapamycin-dependent effect [3]: able to suppress the effects of rapamycin
- ability to suppress the effects of rapamycin [4]: able to suppress the effects of rapamycin

SMILES: C=CC[C@@H]1/C=C(\C)C[C@H](C)C[C@H](OC)[C@H]2O[C@@](O)(C(=O)C(=O)N3CCCC[C@H]3C(=O)O[C@H](/C(C)=C/[C@@H]3CC[C@@H](O)[C@H](OC)C3)[C@H](C)[C@@H](O)CC1=O)[C@H](C)C[C@@H]2OC [FK506]
- inhibition of reporter gene activity at high level of fCAB overexpression [5]: a high level of fCAB overexpression overcame the ability of FK506 or its derivatives to inhibit reporter gene activity
- stimulation of SEAP activity [6]: neither of the 350miniCABs were able to stimulate SEAP activity
- stimulation of SEAP activity ([7]; FK506-dependent, with FKBP3-GE): able to stimulate SEAP activity
- EC50 ([7]; miniCABs, FK506, SEAP): ~3 nM
- EC50 of the miniCABs compared with full length CABMG-VE ([7]; relative to full length CABMG-VE): an order of magnitude greater than for full length CABMG-VE
- inhibition of NFAT-SEAP activity [2]: antagonizes the effect of PMA+IO in a dose-dependent manner
- EC50 [8]: ~1.3 nM
- EC50 [9]: ~1 nM
- enhancement of SEAP activity ([10]; FK506, with FKBP3-VE): 2.0 fold
- stimulation of SEAP activity in the absence of FK506 ([10]; full CAB-GE and CAB-VE, no FK506): do not stimulate activity in the absence of FK506
- total activation [11]: ~20 fold
- EC50 [12]: ~1.3 nM

SMILES: CO[C@H]1C[C@@H](C)C/C(C)=C/[C@@H](CC=Cc2ccc(Oc3ccccc3)cc2)C(=O)C[C@H](O)[C@@H](C)[C@@H](/C(C)=C/[C@@H]2CC[C@@H](O)[C@H](OC)C2)OC(=O)[C@@H]2CCCCN2C(=O)C(=O)[C@]2(O)O[C@H]1[C@@H](OC)C[C@H]2C [C40-p-phenoxyphenyl-FK506]
- suppression of rapamycin-dependent effect [3]: able to suppress the effects of rapamycin
